Data: US20260124293A1 (priority 2022, published 2026)

What was measured:
K18-hACE2 mice = conditions: mouse, in vivo
Syrian hamsters = conditions: hamster, in vivo

Question: What does the source list for “BetaCoV/Wuhan/IVDC-HB-01/2019 [SARS-CoV-2 WT]”?
Answer: body weight loss (K18-hACE2 mice): associated with weight loss; clinical signs (K18-hACE2 mice): only WT exhibit clinical signs; animals that succumbed to the disease or reached termination criteria (Syrian hamsters): 75%; mean bodyweight (Syrian hamsters): 84%
